Results on one molecule are retold here after US12304905B2, “Pharmaceutical salts of benzothiazol compounds, polymorphs and methods for preparation thereof” (priority 2019, dated 2025).

Format in all cases: physicochemical
Data set [1] is described as follows: Dry grinding and wet granulation, physical stability in the milling process. The method, then: Dry grinding and wet granulation were carried out to test physical stability of (1S,2S)-2-fluoro-N-(6-(4-methylpyridin-3-yl)benzo[d]thiazol-2-yl)cyclopropane-1-carboxamide mono-hydrochloride in the milling process.
For dry grinding experiment, about 50 mg of (1S,2S)-2-fluoro-N-(6-(4-methylpyridin-3-yl)benzo[d]thiazol-2-yl)cyclopropane-1-carboxamide mono-hydrochloride was added into mortar and grinded by pestle for about 5 mins. Residual solids were then characterized by XRPD.
For wet granulation experiment, about 50 mg of (1S,2S)-2-fluoro-N-(6-(4-methylpyridin-3-yl)benzo[d]thiazol-2-yl)cyclopropane-1-carboxamide mono-hydrochloride was added into mortar and then several drops of solvent EtOH were added until the solids were fully wetted. Wet solids were grinded by pestle for about 5 mins manually and residual solids were then characterized by XRPD.

Data set [2] in a line: Polymorph screening study of mono-hydrochloride (slurry, heating-cooling, slow evaporation, anti-solvent). The note with it: slow evaporation and anti-solvent methods, starting from Pattern I. The procedure:
About 50 mg of (1S,2S)-2-fluoro-N-(6-(4-methylpyridin-3-yl)benzo[d]thiazol-2-yl)cyclopropane-1-carboxamide mono-hydrochloride was suspended into 1.0 mL selected pure or binary solvents in 2.0 mL glass vials. The suspensions were placed on the thermo-mixer with the speed of 700 r/m in at 25° C. and 50° C. After 4 days, slurries and suspensions were centrifuged (8,000 r/m in, 5 mins) and residual solids were dried in the vacuum oven at 35° C. for 4 hrs.
About 50 mg of (1S,2S)-2-fluoro-N-(6-(4-methylpyridin-3-yl)benzo[d]thiazol-2-yl)cyclopropane-1-carboxamide mono-hydrochloride was suspended into 1.0 mL selected pure or binary solvents in 2.0 mL glass vials at 50° C. stirring with the speed of 500 r/min. Then the suspensions were filtered through 0.45 μm filters into clean 2.0 mL glass vials and placed on the hot-plate stirring with 500 r/m in at 50° C. After stirring at 50° C. for 1.5 hrs, the system was cooled to 25° C. After stirring at 25° C. for 16 hrs, some solids came out from MeOH, EtOH/H2O (5/1, v/v) and acetone/H2O (5/1, v/v) systems, while very few solids came out from EtOH system. Then MeOH, EtOH/H2O (5/1, v/v) and acetone/H2O (5/1, v/v) systems were centrifuged at 10000 r/min for 5 mins and residual solids were dried in the vacuum oven at 35° C. for 3 hrs. Obtained dry solids were then characterized by XRPD. […]

Data set [3] is described as follows: Solubility tests of mono- and di-hydrochloride in bio-relevant media by HPLC. The note with it: for solubility at 17 h: 37 °C, thermodynamic from solid; for pH: after shaking 17 hrs at 37° C. The procedure:
Solubilities of mono-hydrochloride and di-hydrochloride salt forms in biorelevant media were tested at 37° C. Details of procedures were listed as below: About 15 mg obtained salts were weighed in 2 mL vials, respectively. Then 1.0 mL bio-relevant media (SGF, FaSSIF and FeSSIF) were added into the vials. All the vials were placed on the thermo-mixer and kept at 37° C. (700 r/min). After shaking at 37° C. for 17 hrs, clear solutions obtained by centrifugation were analyzed by HPLC after being diluted by ACN/water (1v/1v) for 10-50 times. And pH value of all systems were measured.

Data set [4] can be described thus: Solubility of mono-hydrochloride in solvents. To be noted: in MeOH, DMF, DMSO and water.

As for `Cc1ccncc1-c1ccc2nc(NC(=O)[C@@H]3C[C@@H]3F)sc2c1.Cl` [Mono-hydrochloride, (1S,2S)-2-fluoro-N-(6-(4-methylpyridin-3-yl)benzo[d]thiazol-2-yl)cyclopropane-1-carboxamide mono-hydrochloride], in data set [1] (after dry grinding), the “crystallinity of residual solids (XRPD)” value is given as “decreased”. In addition, the “crystalline form (XRPD)” value in data set [1] (after dry grinding or wet granulation process) is reported as “not changed”. In addition, the “XRPD pattern in polymorph screening” value in data set [2] is recorded as “No new XRPD pattern was found”. In addition, the solubility at 17 h was greater than 13900 µg/mL in data set [3] (pH 1.88, simulated gastric fluid); 130 µg/mL in data set [3] (pH 5.07, fessif); 7840 µg/mL in data set [3] (pH 6.62, fassif). For the same molecule, the pH in data set [3] (FaSSIF (pH = 6.62)) is recorded as 2.01; in data set [3] (FeSSIF (pH = 5.07)), 3.83; in data set [3] (SGF (pH = 1.88)), 1.89. The solubility entry in data set [4] was “relatively high solubility”.
